Assay results taken from PMC5187951 (International Journal of Molecular Sciences, 2016).

What was measured:
[1] = test system: gastrointestinal mucosa (stomach); experiment: Ulcerogenic studies, fasted rat model; assay type: in vivo; conditions: 20 mg/kg p.o., 4 h after dose, UI = area of ulcer/area of stomach × 100
Procedure: The animals were categorized into 6 groups, each has 5 animals. Group 1 was control and given 0.5% carboxymethyl cellulose (CMC) suspension. […] The prodrugs 5a–c (20 mg/kg p.o.) were given to Groups III–V, respectively. Food and water was removed from animal cages 24 h before starting the experiments. After 4 h administration of dose, the animal′s stomach was removed by sacrificing the animal. Stomach was kept on saline soaked filter paper for inspection. The stomach was opened along larger curvature and cleaned with distilled water. The mucous was removed and the area of ulcers and stomachs were noted.
Following formula was used for calculation of Ulcer index (UI); (2) UI=Area of Ulcer/Area of Stomach×100

[2] = test system: carrageenan induced paw edema in mice; experiment: Carrageenan induced paw edema in mice; assay type: in vivo; conditions: 20 mg/kg p.o.; for Inflammation at 1 h (paw thickness), Mean ± SEM / Percent inhibition of paw edema at 1 h: 1 h after carrageenan; for Percent inhibition of paw edema at 1 h / Percent inhibition of paw edema at 2 h / Percent inhibition of paw edema at 3 h / Percent inhibition of paw edema at 4 h: vs control; for Inflammation at 2 h (paw thickness), Mean ± SEM / Percent inhibition of paw edema at 2 h: 2 h after carrageenan; for Inflammation at 3 h (paw thickness), Mean ± SEM / Percent inhibition of paw edema at 3 h: 3 h after carrageenan; for Inflammation at 4 h (paw thickness), Mean ± SEM / Percent inhibition of paw edema at 4 h: 4 h after carrageenan
Procedure: Anti-inflammatory activity of mutual prodrugs 5a–c was determined by following the already reported method by slight modification against carrageenan induced paw edema in mice. The animals were distributed into 5 groups each having five mice. The mice used for the experiment were kept on fasting for 24 h before the starting of experiment. […] The paw volume was measured at 0, 1, 2, 3 and 4 h after the administration of carrageenan by using vernier caliper. (1) Percent inhibition (%) = 100 (1−X/Y) where X = mean increase in paw thickness of treated mice; and Y = mean increase in paw thickness of control mice.

[3] = test system: acetic acid induced writhing in mice; experiment: Acetic acid induced writhing in mice; assay type: in vivo; conditions: 20 mg/kg p.o.; for No. of Writhing, Mean ± SEM: 0.6% acetic acid, counted up to 15 min; for Percentage inhibition of writhing: vs control
Procedure: Koster et al., reported method was adopted for the determination of analgesic activity of the mutual prodrugs 5a–c. The mice were divided in to five groups each group consists of five animals. […] For induction of writhings, acetic acid solution (0.6% in normal saline) was given to every mouse post 30 min of treatment. After 5 min of injection of this solution, the number of writhings was counted up to 15 min.

[4] = test system: platelet aggregation of rat platelet rich plasma induced by ADP or collagen; experiment: Ex vivo antiplatelet aggregation activity; assay type: in vivo, Sprague-Dawley (SD) rats; conditions: 100 mg/kg orally, blood 90 min after dosing, ADP 1.3 µmol/L or collagen 32.8 µg/mL; ASA 50 mg/kg positive control
Procedure: The antiplatelet activity of synthesized mutual prodrugs 5a–c was investigated by following the already reported method with some modifications. Male Sprague-Dawley (SD) rats weighing 320–350 g were used after overnight fasting. Rats were orally administered via gastric tube 100 mg/kg of prodrugs solution or 50 mg/kg of acetyl salicylic acid (ASA) suspended in 0.5% carboxymethyl cellulose (CMC) solution. Blood was collected 90 min after sample administration and platelet-rich plasma (PRP) was prepared by centrifugation of blood at 120× g for 15 min and further centrifuged at 850× g for 15 min to prepare platelet-poor plasma (PPP). Platelet aggregation was induced by 32.8 µg/mL of collagen or 1.3 µmol/L of adenosine diphosphate (ADP) in 300 µL of PRP. The PRP (300 µL) was incubated at 37 °C for 2 min in the aggregometer with stirring at 1000 rpm and then stimulated with ADP, collagen, epinephrine and A23187. The changes in light transmission were recorded for 5 min after stimulation. The synthesized mutual prodrugs 5a–c were added to the platelet suspension 3 min before the addition of the aggregating agents. The extent of inhibition of platelet aggregation is expressed as percent inhibition (X) using the following formula: (3) X=((A−B)/A)×100 where A = maximal aggregation of the control; and B = maximal aggregation of sample-treated PRP.

[5] = test system: egg albumin induced paw edema in mice; experiment: Egg albumin induced inflammation (paw edema) in mice; assay type: in vivo; conditions: 20 mg/kg p.o.
Procedure: Anti-inflammatory potential of synthesized prodrugs 5a–c against egg albumin induced inflammation was also determined for further verification by following the previously reported method. The animals were divided into five groups, each group having five animals. The animals were kept on fasting for 24 h before the beginning of the experiment.

[6] = test system: formalin induced licking in mice; experiment: Formalin induced licking in mice; assay type: in vivo; conditions: 20 mg/kg p.o.; for Lickings Time, Mean ± SEM: formalin 2.5%, observed 30 min; for Percentage inhibition of licking time: vs control
From the text: Formalin induced licking in mice was also used to determine analgesic activity of prodrugs 5a–c for further verification. The animals were distributed in to five groups having five mice in each group.

[7] = test system: yeast induced pyrexia in mice; experiment: Yeast induced pyrexia in mice; assay type: in vivo; conditions: for Temperature 1 h, Mean ± SEM / Temperature 2 h, Mean ± SEM / Temperature 3 h, Mean ± SEM: 20 mg/kg p.o.; for Temperature 1 h, Mean ± SEM: 1 h after drug administration; for Temperature 2 h, Mean ± SEM: 2 h after drug administration; for Temperature 3 h, Mean ± SEM: 3 h after drug administration; for Temperature After 24 h of Induction, Mean ± SEM: rectal temperature after yeast, before drug; for Temperature before Induction, Mean ± SEM: rectal temperature, baseline before yeast
Procedure: Antipyretic activity of prodrugs 5a–c was evaluated against yeast induced pyrexia in mice according to Sakande et al., reported method. Aqueous suspension of brewer′s yeast (20% in distilled water) […] was given subcutaneous to mice. […] Only, those animals were further used in which the pyrexia had been induced. The animals were divided in to five groups having five mice in each group. […] Then animals were treated as described earlier with control, standard and prodrugs 5a–c. Rectal temperature of animals was recorded at 1, 2, 3 and 4 h after drug administration.

Row | SMILES | Inflammation at 1 h (paw thickness), Mean ± SEM [2] | Percent inhibition of paw edema at 1 h [2] | Inflammation at 2 h (paw thickness), Mean ± SEM [2] | Percent inhibition of paw edema at 2 h [2] | Inflammation at 3 h (paw thickness), Mean ± SEM [2] | Percent inhibition of paw edema at 3 h [2] | Inflammation at 4 h (paw thickness), Mean ± SEM [2] | Percent inhibition of paw edema at 4 h [2] | No. of Writhing, Mean ± SEM [3] | Percentage inhibition of writhing [3] | Lickings Time, Mean ± SEM [6] | Percentage inhibition of licking time [6] | Temperature 1 h, Mean ± SEM [7] | Temperature 2 h, Mean ± SEM [7] | Temperature 3 h, Mean ± SEM [7] | Temperature After 24 h of Induction, Mean ± SEM [7] | Temperature before Induction, Mean ± SEM [7] | other results
1 | CC(C)Cc1ccc([C@H](C)C(=O)OCC(=O)Oc2ccc3ccc(=O)oc3c2)cc1 [5c, (S)-((2-oxo-2H-chromen-7-yloxy)carbonyl) methyl 2-(4-isobutylphenyl) propanoate] | 4.22 ± 0.04 mm | 4.09% | 4.05 ± 0.02 mm | 12.14% | 3.80 ± 0.04 mm | 21.64% | 3.60 ± 0.04 mm | 28.99% | 18.25 ± 0.85 | 50.94% | 1.31 ± 0.07 | 53.71% | 98.35 ± 0.05 °F | 97.65 ± 0.15 °F | 97.25 ± 0.08 ^ns °F | 102.1 ± 0.96 °F | 98.95 ± 0.04 °F | Ulcer Index (Mean±SEM) [1]: 1.61 ± 0.58; Inflammation at 0 h (paw thickness), Mean ± SEM ([2]; 0 h after carrageenan): 4.32 ± 0.04 mm; Inhibition of platelet aggregation [4]: most potent inhibitory effects; Inflammation at 0 h (paw thickness), Mean ± SEM ([5]; 0 h after egg albumin): 4.60 ± 0.33 mm; Inflammation at 1 h (paw thickness), Mean ± SEM ([5]; 1 h after egg albumin): 3.12 ± 0.06 mm; Percent inhibition of paw edema at 1 h ([5]; 1 h after egg albumin, vs control): 29.09%; Inflammation at 2 h (paw thickness), Mean ± SEM ([5]; 2 h after egg albumin): 3.02 ± 0.06 mm; Percent inhibition of paw edema at 2 h ([5]; 2 h after egg albumin, vs control): 37.08%; Inflammation at 3 h (paw thickness), Mean ± SEM ([5]; 3 h after egg albumin): 2.92 ± 0.07 mm; Percent inhibition of paw edema at 3 h ([5]; 3 h after egg albumin, vs control): 44.06%
2 | CC(C)Cc1ccc([C@H](C)C(=O)O)cc1 [Dexibuprofen, S-(+)-ibuprofen, reference compound] | 4.35 ± 0.06 mm | 1.1% | 4.07 ± 0.02 mm | 11.71% | 3.90 ± 0.04 mm | 19.58% | 3.75 ± 0.06 mm | 26.03% | 17.06 ± 1.08 | 54.12% | 1.60 ± 0.22 | 43.46% | 95.25 ± 0.37 ^ns °F | 95.02 ± 0.35 °F | 94.97 ± 0.31 °F | 95.77 ± 0.26 °F | 95.20 ± 0.21 °F | 
